The test system of assay [1] is finger scratch bleeding. The assay is described as follows: finger scratched to bleed, substance applied to bleeding site. In kind it is in vivo, human. The following applies: for black blood coagulation / black color formation: derivatives in powder or gel or liquid form; for stopping of bleeding: powder or gel or liquid form. An excerpt: Myself, finger little scratched, slightly bleeds.

In assay [2] the test system is bleeding nostril. The assay is described as follows: nostril bleeding in rat. Type of assay: in vivo.
Assay [3] deals with human blood. In words: test tube black blood coagulation of human blood. An excerpt:
The present invention is directed to a method for stopping bleeding, comprising administering powdered D,L-threo-hex-2-enono-1,4-lactone tablets thereof to the wound site in an amount of 0.1568 grams for every milliliter of blood. This powder has a very potent coagulation action to stop bleeding when spraying topically on the bleeding area for any normal or diseased patients. When the powder comes in contact with the blood, the black tar like material is formed, and later becomes solid. The amount of the powder that is needed to react completely with the blood is proportional to the amount of the blood that comes out of the blood vessels. […] The artery bleeding needs much more this powder of interest. […] This is the same for normal, colon cancer and hemophilia patients; 1 ml of normal blood needs 0.1568 grams of D,L-threo-hex-2-enono-1,4-lactone powder, 1 ml of colon cancer needs 0.1568 grams of D,L-threo-hex-2-enono-1,4-lactone, 1 ml of hemophilia blood needs 0.1568 grams of D,L-threo-hex-2-enono-1,4-lactone. Sufficient powdered D,L-threo-hex-2-enono-1,4-lactone is particularly useful to stop bleeding in the case of diffuse capillary oozing and mistakenly cut off artery or arteries that can not be found during massive bleeding so as to save the patients's lives therefor. When D,L-threo-hex-2-enono-1,4-lactone is absorbed into the system, it is good for health by making the leucocytes stronger and slowing the aging process etc. However, at the end of operation before closure, the excessive black tar gel like material can be wiped away with Ringer's solution. Normal, liver Disease, Colon Cancer and Hemophilia Blood When tested in the tube, 1 milliliter of human blood requires 0.1568 grams of a composition comprising powdered D,L-threo-hex-2-enono-1,4-lactone to form black blood coagulation by shaking the tube with hand or stirrer machine. It takes 6 minutes to cause the black blood coagulation unmobile in the test tube for normal, liver diseases, colon cancer and hemophilia blood respectively.

Assay [4] has as its system gastric bleeding area. The assay is described as follows: bleeding area in rat after histamine-induced gastric acid secretion. Type of assay: in vivo. Particulars: rat after histamine injection; topical to bleeding area. An excerpt: Thus this powder can treat the gastric ulcer bleeding when ingested orally.
For assay [5], the system named is surgical / dental bleeding. In words: clinical evidence: topical powder on surgical and dental bleeding in patients. In kind it is in vivo, human. Particulars: person. As to the method: Person, scalp tumor excision, massive bleeding when the tumor is excised.
Person, acute renal failure, A-V fistula formation operation, masive bleeding. The operation of stopping bleeding consists of combing the powder with pressing with gauzes. […] At the end of the operation, most of black blood coagulation is wiped out with 4×4 gauze, and rinsed with Ringer's solution. It takes totally 5 minutes to stop the bleeding completely, as the surgeon keeps wiping away the coagulation. The patient's conditions are particularly well, better than without using this powder.
Person, skin contracture on the palm, which needs to be removed, and it requires skin graft. When the skin graft is removed from the hand, massive bleeding occurs. On applying sufficient powder to the bleeding area topically, it appears black coagulation on contact. […] Those that appears more black area indicate the more powder mixed up with the blood. Suture going on.
Person, paraanal excision, bleeding when it is opened up. […] Those that appears white are the powder that are not mixed up with the blood. Suture going on.
Person, paranal abscess Excision, massive bleeding when it is opened. […] The white color is the powder instantly not mixed up with the blood yet. Lastly, insert the long gauze into the anus.
Person, chronic hepatitis, has bleeding tendency, extraction of teeth causes massive bleeding.

For assay [6], the system named is venous bleeding. In words: vein bleeding in rat, one vein cut off. Type of assay: in vivo.
In assay [7] the test system is capillary bleeding. In words: capillary bleeding in rat, one capillary cut off. In kind it is in vivo.
In assay [8] the test system is massive bleeding of femoral artery. The assay is described as follows: femoral artery bleeding in rat, powder poured topically. In kind it is in vivo. As to the method:
Sufficient composition comprising powdered D,L-threo-hex-2-enono-1,4-lactone and excipients stops massive bleeding of femoral artery on contact when femoral artery of a rat is cut off In this case of artery on contact when femoral artery of a rat is cut off. In this case of artery bleeding, it is administered topically by pouring instead of spraying. […] Those white spots indicate the powder that is not yet mixed up with the blood. The gel forms first on the surface of the pond of blood, that stops the fluid moving. If stirring the blood to break through the surface film like structure that keeps the blood fluid from moving when the powder is insufficient, it will bleed again, but much slower than before pouring the powder into the bleeding area; adding sufficient powder into the blood, stirring makes the powder molecules well saturated with the hemoglobin and plasma protein molecules and thus forming the concentrated black gel like structure.

“Also recorded” adds a separate entry of the source.

Take `O=C1OC(C(O)CO)C(O)=C1OP(=O)(O)O` [D,L-threo-hex-enono-1,4-lactone-2-phosphate]: in assay [1], the “black blood coagulation / black color formation” value is “the black blood coagulation was formed” and the stopping of bleeding entry is “bleeding was stopped on contact”.

`O=C1OC(C(O)CO)C(O)=C1OC(=O)c1ccccc1` [D,L-threo-hex-2-enono-1,4-lactone-2-benzoate]: in assay [1], the “black blood coagulation / black color formation” value was “the black blood coagulation was formed” and the stopping of bleeding result is given as “bleeding was stopped on contact”.

Take `CCCCCCCCCCCCCCCC(=O)OCC(O)C1OC(=O)C(O)=C1O` [D,L-threo-hex-2-enono-1,4-lactone-6-palimitate]: in assay [1], the “black blood coagulation / black color formation” value is “the black blood coagulation was formed” and the stopping of bleeding result is “bleeding was stopped on contact”.

In the case of “D,L-threo-hex-2-enono-1,4-lactone-2-propane”, in assay [1], the “black blood coagulation / black color formation” value is on record as “the black blood coagulation was formed” and the stopping of bleeding entry is “bleeding was stopped on contact”.

Turning to `O=C1OC(C(O)CO)C(O)=C1O` [D,L-threo-hex-2-enono-1,4-lactone], the “amount of powder applied that stops bleeding” value in assay [2] (rat nostril cut slightly) was determined as 0.0037 grams. For the same molecule, the stopping of bleeding result in assay [2] (rat nostril, 0.0037 grams) was “the bleeding stops on contact”; in assay [5] (extraction of teeth, chronic hepatitis, bleeding tendency) it was “the bleeding in the socket stops on contact”; in assay [5] (extraction of tooth), “the bleeding stops on contact”; in assay [5] (paraanal abscess excision, sprayed), “it stops bleeding by forming black blood coagulation on contact”; in assay [5] (scalp tumor excision, massive bleeding, sprayed), “the bleeding atops on contact”; in assay [5] (skin contracture excision with skin graft, massive bleeding), “Bleeding stops at the same time as the black coagulation forms”. Further, the stopping of bleeding entry in assay [6] (rat, one venous bleeding) is reported as “stop bleeding on contact; also recorded: within one second”; in assay [7] (rat, one capillary bleeding) it was “stops the bleeding on contact; also recorded: within one second”. Further, in assay [3] (0.1568 grams per 1 ml normal or diseased human blood), the “time after which mixture does not move by shaking or pouring” value is 6 min. Moreover, the “time to cause black blood coagulation unmobile in the test tube” value in assay [3] (colon cancer blood), in assay [3] (hemophilia blood), in assay [3] (liver diseases blood) and in assay [3] (normal blood) was 6 min in each case. The amount needed in assay [3] (per 1 ml of colon cancer blood), in assay [3] (per 1 ml of hemophilia blood) and in assay [3] (per 1 ml of normal blood) was 0.1568 grams throughout. Moreover, in assay [3] (per 1 ml of normal or diseased human blood, test tube), the “amount required to form black blood coagulation” value is given as 0.1568 grams. For the same molecule, the black coagulation formation result in assay [4] was “the black coagulation formed, but slower than normal”. Also, the “time to stop the bleeding completely” value in assay [5] (A-V fistula plasty, acute renal failure, powder plus gauze pressing, coagulation repeatedly wiped away) amounted to 5 min. Also, the “persistence of stopped bleeding after wiping out black coagulation” value in assay [5] (extraction of tooth, wiped out in 10 seconds) is “stopped bleeding still persisted”. In assay [5] (paraanal abscess excision, massive bleeding, sprayed), the “black blood coagulation formation” value is given as “the black color is formed on contact”. The “black blood coagulation / black color formation” value in assay [1] was “the black color forms on contact”. Moreover, the “bleeding after black coagulation is wiped away” value in assay [6] (about 1½ minutes after wiping away) was “no more bleeding”. For the same molecule, the “amount of powder needed to stop bleeding” value in assay [6] (rat, one vein cut off) is given as “about 0.0224 grams”. Also, in assay [7] (after 1 minute from adding the powder), the “bleeding after adding the powder” value was “no more bleeding at all”. Besides, the “amount of powder that stops bleeding” value in assay [7] (rat, one capillary cut off) was “about 0.0112 grams”. Besides, in assay [8] (after 5-6 minutes), the “bleeding after sticky tar like structure is wiped away” value is recorded as “no bleeding at all”. In addition, the “formation of black tar like material” value in assay [8] (as soon as powder contacts the blood) is on record as “formed in one second”. The “time to stop bleeding” value in assay [8] (rat femoral artery bleeding, sufficient powder) is on record as “within one second”. For the same molecule, in assay [8] (rat femoral artery cut off, poured topically, amount varies with rats), the “amount of powder usually sufficient to stop bleeding” value turned out to be 0.1344 grams.

Source of the values: patent US6783774B1 (priority 1990, dated 2004).
